Assay [1] deals with APN. Particulars: cited from earlier work; for Ki: α-Keto amides.
Assay [2] addresses LAP (Homo sapiens, UniProt P28838). Particulars: α-Aminoboric acids; cited from earlier work.
In assay [3] the target is Argininyl AP (Homo sapiens, UniProt Q9H4A4). Particulars: α-Keto amides, cited from earlier work.
Assay [4] deals with Cytosolic AP. Particulars: α-Keto amides; cited from earlier work.
Assay [5] deals with human regulatory T-cells (CD4+CD25+). Nature of the assay: Co-culture of human effector cells (CD4+CD25-) and regulatory T-cells, proliferation by tritium thymidine inclusion. Particulars: for effect of the inhibitor on suppressive capacity of the Treg cells: 120 hours co-culture, anti-CD3. Format: cell-based. An excerpt: Mononuclear cells were obtained from the peripheral blood of healthy donors by means of density-gradient centrifugation. The isolation of regulatory T-cells occurred by means of a two-stage magnetic separation:
In a first step CD4^+ T-cells were recovered by depletion of all CD4-negative cells [CD4 separation kit, Miltenyi Biotech, Bergisch-Gladbach, Germany]. The purity achieved regularly amounted to >95% CD4^+ T-cells.
In a second step CD4^+CD25^+ regulatory T-cells were in turn isolated from this population by magnetic column separation using CD25 marking [anti-CD25 MicroBeads, Miltenyi Biotech].
The CD4^+CD25^− fraction served as effector cell control.
The functional capacity of the regulatory T-cells was tested in a special co-culture. For this, 20 000 effector cells (CD4^+CD25^−) and regulatory T-cells (CD4^+CD25^+) in total were respectively cultivated in different quantitative ratios to one another over a period of 120 hours in microtest plates. A solid phase-bound anti-CD3 antibody [UCHT1, 0.25 μg/well] was used as activator of the T-cell stimulation.
The degree of proliferation of the cultivated cells was analysed on the basis of the DNA synthesis rate by means of tritium thymidine inclusion over 24 hours [n=5].
The degree of proliferation of the cultivated cells was analysed on the basis of the DNA synthesis rate by means of tritium thymidine inclusion over 24 hours [n=3].
Mononuclear cells were obtained from the peripheral blood of healthy donors by means of density-gradient centrifugation. A T-cell separation followed using nylon pad adherence.
The isolation of regulatory T-cells occurred by means of a two-stage magnetic separation:
The degree of proliferation of the cultivated cells was analysed on the basis of the DNA synthesis rate by means of tritium thymidine inclusion over 24 hours [n=10].

Assay [6] deals with murine regulatory T-cells (CD4+CD25+). Nature of the assay: Co-culture of murine effector cells (MNC-CD25-) and regulatory T-cells, proliferation by tritium thymidine inclusion. In kind it is cell-based, mice. The following applies: 1.0 μM, after 5 days of co-culture, anti-CD3/anti-CD28. On the procedure:
Mononuclear cells (MNC) were obtained from the peripheral blood of healthy mice by means of density-gradient centrifugation. The isolation of regulatory T-cells occurred using CD25 marking [anti-CD25 MicroBeads, Miltenyi Biotech]. The CD25^− MNC fraction served as effector cell control.
The functional capacity of the regulatory T-cells was tested in a special co-culture. For this, 20 000 effector cells (MNC-CD25^−) and regulatory T-cells (CD4^+CD25^+) in total were respectively cultivated in different quantitative ratios to one another over a period of 120 hours in microtest plates. The T-cell stimulation occurred by adding anti-CD3/anti-CD28 [1 μg/ml].
The degree of proliferation of the cultivated cells was analysed on the basis of the DNA synthesis rate by means of tritium thymidine inclusion over 24 hours [n=4].

Assay [7] has as its system colitis in Balb-c mice. The assay is described as follows: DSS colitis model in mice, disease activity index (DAI). In kind it is in vivo. Particulars: single intravenous application on day 3, phebestin 0.5 mg/kg or 1 million cells/animal, up to 48 hours after application. An excerpt:
Colitis was triggered in Balb-c mice by the oral application of 3% dextran sodium sulphate solution (DSS). The degree of severity of the illness was established on the basis of a disease activity index (DAI). This consisted of the daily documentation of body weight loss, stool consistency, rectal bleeding, food and water intake, and is defined in the publication “Bank, U., Heimburg, A., Helmuth, M., Stefin, S., Lendeckel, U., Reinhold, D., Faust, J., Fuchs, P., Sens, B., Neubert, K., Täger, M., Ansorge, S.; Triggering endogenous immunosuppressive mechanisms by combined targeting of dipeptidyl peptidase IV (DPIV/CD26) and aminopeptidase N (APN/CD13)—A novel approach for the treatment of inflammatory bowel disease; International Immunopharmacology 6: 1925-1934 (2006)”.
Regulatory T-cells from peripheral venous blood were recovered in parallel by means of density-gradient centrifugation and magnetic separation using CD25 Microbeads.
On day 3, either the aminopeptidase N inhibitor phebestin (0.5 mg/kgKG), untreated CD4^+CD25^+ Treg cells (1 million cells/animal) or activated CD4^+CD25^+ Treg cells (1 million cells/animal) were applied once intravenously.
The activation of the Treg cells occurred ex situ using the method according to the invention by incubating the Treg cells for 45 minutes in the presence of phebestin [500 μg/ml].

Setting [8] is: β-Aminothiols table, read-out: IC50 (nM) APN.
[9] abbreviates: α-Aminoboric acids, read-out: IC50, μM (APN).
Setting [10] is: N-Phenylphthalimides and -homophthalimides, enzyme not given, alanyl-aminopeptidase, read-out: IC50.

Like-named read-outs stand apart in the source and are kept apart here.

Sequence of LAP (P28838 whole entry): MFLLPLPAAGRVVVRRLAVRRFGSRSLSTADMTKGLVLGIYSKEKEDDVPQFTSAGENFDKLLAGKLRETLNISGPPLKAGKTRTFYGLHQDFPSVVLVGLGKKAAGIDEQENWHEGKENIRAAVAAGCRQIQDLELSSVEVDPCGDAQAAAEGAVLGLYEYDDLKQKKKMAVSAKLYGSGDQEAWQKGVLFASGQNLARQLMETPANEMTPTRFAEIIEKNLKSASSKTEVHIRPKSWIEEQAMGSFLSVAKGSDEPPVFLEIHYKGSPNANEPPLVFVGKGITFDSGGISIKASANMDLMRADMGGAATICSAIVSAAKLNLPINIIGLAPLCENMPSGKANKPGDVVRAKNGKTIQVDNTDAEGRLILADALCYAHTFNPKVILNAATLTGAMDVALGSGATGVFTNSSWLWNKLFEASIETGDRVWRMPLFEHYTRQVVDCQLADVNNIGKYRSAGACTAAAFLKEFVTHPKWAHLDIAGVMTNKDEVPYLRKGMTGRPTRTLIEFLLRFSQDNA
Sequence of Argininyl AP (Q9H4A4 whole entry): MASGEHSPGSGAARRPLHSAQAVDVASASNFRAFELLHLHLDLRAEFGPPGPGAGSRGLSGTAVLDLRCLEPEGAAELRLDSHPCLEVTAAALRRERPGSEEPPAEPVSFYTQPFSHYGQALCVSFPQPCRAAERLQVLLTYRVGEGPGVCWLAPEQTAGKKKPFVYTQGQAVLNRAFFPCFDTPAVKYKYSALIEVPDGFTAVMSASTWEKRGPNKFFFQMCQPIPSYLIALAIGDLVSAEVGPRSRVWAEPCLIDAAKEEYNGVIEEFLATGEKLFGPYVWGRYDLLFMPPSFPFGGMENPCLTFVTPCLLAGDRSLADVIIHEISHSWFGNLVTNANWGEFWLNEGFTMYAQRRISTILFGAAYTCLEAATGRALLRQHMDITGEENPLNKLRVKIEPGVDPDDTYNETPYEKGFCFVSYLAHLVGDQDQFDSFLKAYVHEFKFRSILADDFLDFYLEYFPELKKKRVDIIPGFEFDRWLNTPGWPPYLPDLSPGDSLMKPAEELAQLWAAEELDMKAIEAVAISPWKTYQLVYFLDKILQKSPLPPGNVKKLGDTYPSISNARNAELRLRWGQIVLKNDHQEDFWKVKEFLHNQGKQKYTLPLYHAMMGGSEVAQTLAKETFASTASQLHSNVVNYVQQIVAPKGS

As usually defined, the IC50 is the concentration at which inhibition is half-maximal. With `NC(CS)COCc1ccccc1` (centres unmarked), in assay [1] (setting [8]), the IC50 was 56 nM.
In the case of `NC(CS)CC1CCCCC1` (centres unmarked), the IC50 in assay [1] (setting [8]) was 45 nM.
Regarding `CC(C)(C)SCC(N)CS` (centres unmarked), the IC50 in assay [1] (setting [8]) is 40 nM.
`NC(CS)c1ccccc1` (centres unmarked): the IC50 in assay [1] (setting [8]) is 25 nM.
For `NC(CS)Cc1ccc(O)cc1` (centres unmarked), the IC50 in assay [1] (setting [8]) was 45 nM.
In the case of `CCOC(=O)[C@H](N)CS`, the IC50 in assay [1] (setting [8]) was 350 nM.
As for `CC(C)C[C@@H](N)B(O)O`, the IC50 in assay [2] is 0.25 µM.
As to `C[C@@H](N)B1OC(C)(C)C(C)(C)O1`, the IC50 in assay [2] is 0.35 µM; in assay [1] (setting [9]), 70 nM.
With `CC(C)C[C@@H](N)B1OC(C)(C)C(C)(C)O1`, the IC50 in assay [2] is 0.25 µM; in assay [1] (setting [9]), 74 nM.
Consider `CC1(C)OB([C@H](N)Cc2ccccc2)OC1(C)C`, for which the results for the IC50 in assay [2] and in assay [1] (setting [9]) were 0.2 µM and 50 nM, respectively.
Regarding `N[C@H](Cc1ccccc1)B1OCCCO1`, in assay [2], the IC50 is 0.2 µM.
On to `CSc1ccccc1N1C(=O)Cc2ccccc2C1=O`, for which the IC50 in assay [1] (setting [10]) was 900 nM.
With `CC(C)c1cccc(C(C)C)c1N1C(=O)Cc2c(N)cccc2C1=O`, in assay [1] (setting [10]), the IC50 was 5400 nM.
Consider `CC(C)c1cccc(C(C)C)c1N1C(=O)Cc2c(O)cccc2C1=O`, for which the IC50 in assay [1] (setting [10]) was 4300 nM.
For orientation: Ki means a dissociation constant, usually derived from enzyme kinetics or from competition with a known ligand. `CC(C)CCNC(=O)C(=O)[C@@H](N)Cc1ccccc1`: the Ki in assay [3] was 1.5 µM; in assay [1], 2.5 µM; in assay [4] it was 1 µM.
For `CC(C)CCNC(=O)[C@@H](O)[C@H](N)Cc1ccccc1`, the Ki in assay [1] was 20 µM.
For the compound `CC(C)CCNC(=O)[C@@H](O)[C@H](N)CC(C)C`, the Ki in assay [3] was greater than 300 µM; in assay [1], 24 µM.
On to `CC(C)CCNC(=O)C(=O)C(N)CC(C)C` (racemic), for which the Ki in assay [3] ((R) isomer) is 6.5 µM; in assay [3] ((S) isomer), 3.2 µM; in assay [1] ((R) isomer), 18.6 µM; in assay [1] ((S) isomer), 10.5 µM.
On to `CCc1cccc(CC)c1-n1c(=O)[nH]c2ccccc2c1=O` [PAQ22, 3-(2,6-diethylphenyl-)quinazoline-2,4(1H3H)-dione], for which, in assay [5] (10% and 5% Treg cell components, after 5 days of co-culture), the “induction of suppressive capacity of the regulatory T-cells” value is “induced the suppressive capacity”.
Turning to `CCCCC[C@H](CC(=O)NO)C(=O)N[C@H](C(=O)N1CCC[C@H]1CO)C(C)C` [actinonin], the “effect of the inhibitor on suppressive capacity of the Treg cells” value is reported as “significant intensification of the suppressive capacity” in assay [5] (physiologically relevant range of 10:1 effector cells to Treg cells (10% Treg)) and “no reliable effect” in assay [5] (ratio of 1:1 of effector cells to Treg cells (50% Treg)).
Turning to `CC(C)[C@H](NC(=O)[C@@H](O)[C@H](N)Cc1ccccc1)C(=O)N[C@@H](Cc1ccccc1)C(=O)O` [phebestin], in assay [6], the “induction of suppressive capacity of the regulatory T-cells” value is “induced the suppressive capacity of the regulatory T-cells to a significant degree”. The “activity of the disease (disease activity index) / clinical symptoms” value in assay [7] is given as “no effect”.

Source of the values: patent US20110117069A1, “METHOD FOR ACTIVATING REGULATORY T-CELLS” (IMTM GMBH, priority 2007, published 2011).
